Test results: the NIST ThermoML archive (doi:10.1016/j.tca.2011.08.002)
Numbers after ± are expanded uncertainties.

Tests used:
[1] = xn = mol fraction of the nth substance listed; details: 101 kPa, Liquid, Vibrating tube method, x1 = 1
[2] = refractive index (Na D-line) (dimensionless); xn = mol fraction of the nth substance listed; details: 101 kPa, Liquid, Standard Abbe refractometry, x1 = 1
[3] = 101 kPa, Liquid, Vibrating tube method
[4] = refractive index (Na D-line) (dimensionless); details: 101.33 kPa, Liquid, Standard Abbe refractometry

CCCO [propan-1-ol] + C1CCC(NC2CCCCC2)CC1
Details | mass density, [1] [kg/m3] | refractive index, [2]
288.15 K | 807.69 ± 0.15 | 1.38785 ± 0.00036
293.15 K | 803.703 ± 0.15 | 1.38578 ± 0.00036
298.15 K | 799.692 ± 0.15 | 1.38364 ± 0.00036
303.15 K | 795.65 ± 0.15 | 1.38153 ± 0.00036
308.15 K | 791.576 ± 0.15 | 1.37929 ± 0.00036
313.15 K | 787.466 ± 0.15 | 1.37702 ± 0.00036
318.15 K | 783.309 ± 0.15 | 1.37483 ± 0.00036
323.15 K | 779.095 ± 0.16 | 1.37252 ± 0.00036

C1CCC(NC2CCCCC2)CC1 [N-cyclohexylcyclohexanamine]
Details | mass density, [3] [kg/m3] | refractive index, [4]
288.15 K | 915.498 ± 0.23 | 1.48636 ± 0.0004
293.15 K | 911.705 ± 0.23 | 1.48416 ± 0.0004
298.15 K | 907.923 ± 0.23 | 1.48198 ± 0.0004
303.15 K | 904.144 ± 0.23 | 1.47978 ± 0.0004
308.15 K | 900.372 ± 0.23 | 1.47761 ± 0.0004
313.15 K | 896.608 ± 0.23 | 1.47562 ± 0.0004
318.15 K | 892.847 ± 0.23 | 1.47347 ± 0.0004
323.15 K | 889.089 ± 0.23 | 1.47134 ± 0.0004

CCCCO [butan-1-ol] + C1CCC(NC2CCCCC2)CC1
Details | mass density, [1] [kg/m3] | refractive index, [2]
288.15 K | 813.373 ± 0.14 | 1.40135 ± 0.00036
293.15 K | 809.573 ± 0.14 | 1.39932 ± 0.00036
298.15 K | 805.762 ± 0.15 | 1.3973 ± 0.00036
303.15 K | 801.923 ± 0.15 | 1.39523 ± 0.00036
308.15 K | 798.053 ± 0.15 | 1.39318 ± 0.00036
313.15 K | 794.147 ± 0.15 | 1.3911 ± 0.00036
318.15 K | 790.231 ± 0.15 | 1.38901 ± 0.00036
323.15 K | 786.238 ± 0.15 | 1.38688 ± 0.00036

CCCCCO [pentan-1-ol]
Details | mass density, [3] [kg/m3] | refractive index, [4]
288.15 K | 818.282 ± 0.24 | 1.41192 ± 0.0004
293.15 K | 814.635 ± 0.24 | 1.40994 ± 0.0004
298.15 K | 810.968 ± 0.24 | 1.40796 ± 0.0004
303.15 K | 807.278 ± 0.24 | 1.40595 ± 0.0004
308.15 K | 803.558 ± 0.24 | 1.40388 ± 0.0004
313.15 K | 799.817 ± 0.24 | 1.40189 ± 0.0004
318.15 K | 796.001 ± 0.24 | 1.39987 ± 0.0004
323.15 K | 792.166 ± 0.24 | 1.39776 ± 0.0004

CCC(C)O (stereo not given) [butan-2-ol]
Details | mass density, [3] [kg/m3] | refractive index, [4]
288.15 K | 810.689 ± 0.24 | 1.39951 ± 0.0004
293.15 K | 806.646 ± 0.24 | 1.39736 ± 0.0004
298.15 K | 802.528 ± 0.24 | 1.39515 ± 0.0004
303.15 K | 798.326 ± 0.24 | 1.39293 ± 0.0004
308.15 K | 794.03 ± 0.24 | 1.39064 ± 0.0004
313.15 K | 789.632 ± 0.24 | 1.38832 ± 0.0004
318.15 K | 785.117 ± 0.24 | 1.38596 ± 0.0004
323.15 K | 780.515 ± 0.24 | 1.38352 ± 0.0004
